From patent US20250359548A1, “METHODS OF IMPROVING STRESS TOLERANCE, GROWTH AND YIELD IN PLANTS” (Valent BioSciences LLC, priority 2020, published 2025)

How the values were obtained:
Format in all cases: in vivo
Apogee wheat [1] = experiment: Example 4: grain yield in Apogee wheat under water stress, dose combinations; details: drought stress
Method: (§1) To determine if the mixtures provided unexpected results, the observed combined efficacy (“OCE”) was divided by the expected combined efficacy (“ECE”) to give an OCE/ECE ratio wherein the expected ECE is calculated by a variation of the Abbott method:
(§2) [formula] • wherein ECE is the expected combined efficacy and in which X is the control efficacy and A and B are the efficacy provided by the single active ingredients. If the ratio between the OCE of the mixture and the ECE of the mixture is greater than 1, then greater than expected interactions are present in the mixture. (Gisi, The American Phytopathological Society, 86:11, 1273-1279, 1996).
72 pots of Apogee wheat were grown in a greenhouse under ideal growing conditions. Specifically, wheat was planted in ProMix® growth media and grown for about seven weeks in a growth cabinet at 24/18° C. day/night temperature under a 16/8 hour light/dark photoperiod. Next, spray applications of 0.025% v/v Latron B-1956® in water, 10 ppm ABA, 30 ppm ABA, 5 ppm CPPU, 10 ppm CPPU, a mixture of 10 ppm ABA and 5 ppm CPPU, a mixture of 30 ppm ABA and 5 ppm CPPU, a mixture of 10 ppm ABA and 10 ppm CPPU and a mixture of 30 ppm ABA and 10 ppm CPPU (n=8) were made using a tank sprayer at Feekes stage 11.0. Plants were then grown with no additional water for next 3-5 until drought stress conditions and water-deficit stress related phenotype was apparent. Plants were re-watered to bring soil moisture to saturation and grown under optimal conditions until physiological maturity. Plants were then destructively harvested and measured for spike weight, grain yield, yield per spike and total above ground biomass.

rice [2] = experiment: Example 5: grain yield in rice (spray at R6)
Method: as §1, §2
32 pots of rice were grown in a greenhouse under ideal growing conditions. Specifically, rice was planted in growth media comprising sand and Pro-Mix® BX and grown for about 3-4 weeks in a growth cabinet at 24/18° C. day/night temperature under a 18/6 hour light/dark photoperiod. Next, spray applications of 0.025% v/v Latron B-1956® in water, 30 ppm ABA, 10 ppm CPPU, and a mixture of 30 ppm ABA and 10 ppm CPPU (n=8) were made using a tank sprayer at early grain filling stage (growth stage R6). Plants were then grown under ideal conditions for an additional 5-7 weeks. Plants were then destructively harvested and measured for yield of top six panicles, yield from other panicles (not top six panicles), yield of all panicles, yield per panicle and yield per top six panicles.

Apogee wheat [3] = experiment: Example 1: grain yield in Apogee wheat under water stress (greenhouse pots, spray at Feekes 11.0); details: drought stress
Method: 42 pots of Apogee wheat were grown in a greenhouse under ideal growing conditions. Specifically, wheat was planted in ProMix® growth media and grown for about-seven weeks in a growth cabinet at 24/18° C. day/night temperature under a 16/8 hour light/dark photoperiod. Next, spray applications of 0.025% v/v Latron B-1956® in water, 30 ppm ABA, 30 ppm 6BA, 10 ppm CPPU, a mixture of 30 ppm ABA and 30 ppm 6BA and a mixture of 30 ppm ABA and 10 ppm CPPU (n=7) were made using a tank sprayer at Feekes stage 11.0. Plants were then grown with no additional water for next 3-5 days until drought stress conditions and water-deficit stress-related phenotypes were apparent. Specifically, drought stress conditions are determined as when pots have lost 60-70% of stored soil water, as determined by determined gravimetrically by weighing pots, through evapotranspiration and water-deficit stress-related phenotypes include wilting and leaf-rolling. Plants were re-watered to bring soil moisture to saturation and subsequently grown under optimal conditions until physiological maturity. Plants were then destructively harvested and measured for spike weight, grain weight, yield per spike and harvest index. Harvest index is calculated by dividing pounds of grain by the total pounds of above ground biomass.
as §1, §2

Apogee wheat [4] = experiment: Example 3: grain yield in Apogee wheat under well-watered conditions, two sprays
Method: as §1, §2
32 pots of Apogee wheat were grown in a greenhouse under ideal growing conditions. Specifically, wheat was planted in ProMix® growth media and grown for about seven weeks in a growth cabinet at 24/18° C. day/night temperature under a 16/8 hour light/dark photoperiod. Next, spray applications of 0.025% v/v Latron B-1956® in water, 30 ppm ABA, 10 ppm CPPU, and a mixture of 30 ppm ABA and 10 ppm CPPU (n=8) were made using a tank sprayer at Feekes stage 11.0. A second chemical spray application was made seven days after first spray. Plants were then grown under ideal conditions for an additional 5-6 weeks until they reached physiological maturity. Plants were then destructively harvested and measured for spike weight, grain yield, yield per spike and total above ground biomass.

Soybean = experiment: Example 8: grain yield in field soybean, Seymour IL 2020
Method: (§3) Soybean was grown in the field in Seymour, IL in 2020. Spray applications of water, 2 g/HA ABA, 6 g/HA ABA and a mixture of 2 g/HA ABA and 2 g/HA 6BA (n=8) were made using a tank sprayer at the beginning of seeding (growth stage R4 to R5). Plants were then grown until mature. Plants were then destructively harvested and measured for grain yield.

Barley = experiment: Example 9: grain yield in field barley, Argentina 2020
Method: Barley was grown in the field in Pieres, Buenos Aires Province, Argentina from Jun. 15 to Dec. 30, 2020. 2 g/HA ABA, 6 g/HA ABA and mixtures of 2 g/HA ABA and 2 g/HA 6BA and 4 g/HA ABA and 2 g/HA 6BA (n=8) were made using a tank sprayer at the beginning of milk grains (growth stage Zadoks 7.2). Plants were then grown until mature. Plants were then destructively harvested and measured for grain yield.

Corn = experiment: Example 7: grain yield in field corn, Seymour IL 2020
Method: as §3, with “Corn” for “Soybean”, “blister to milk stage” for “beginning of seeding”, “R2-R3).” for “R4 to R5).”

rice [5] = experiment: Example 6: grain yield in rice (spray at R5 to R6); details: 30 ppm spray at R5 to R6
Method: as §1, §2
48 pots of rice were grown in a greenhouse under ideal growing conditions. Specifically, rice was planted in growth media comprising sand and Pro-Mix® BX and grown for about 3-4 weeks in a growth cabinet at 24/18° C. day/night temperature under a 18/6 hour light/dark photoperiod. Next, spray applications of 0.025% v/v Latron B-1956® in water, 30 ppm ABA, 30 ppm 6BA, 45 ppm 6BA, a mixture of 30 ppm ABA and 30 ppm 6BA, and a mixture of 30 ppm ABA and 45 ppm 6BA (n=8) were made using a tank sprayer at early grain filling stage (growth stage R5 to R6). Plants were then grown under ideal conditions for an additional 5-7 weeks. Plants were then destructively harvested and measured for yield of top six panicles, yield from other panicles (not top six panicles), yield of all panicles, yield per panicle and yield per top six panicles.

Apogee wheat [6] = experiment: Example 2: grain yield in Apogee wheat under water stress; details: 30 ppm spray; drought stress
Method: as §1, §2
Thirty-two pots of Apogee wheat were grown in a greenhouse under ideal growing conditions. Specifically, wheat was planted in ProMix® growth media and grown for about seven weeks in a growth cabinet at 24/18° C. day/night temperature under a 16/8 hour light/dark photoperiod. Next, spray applications of 0.025% v/v Latron B-1956® in water, 30 ppm ABA, 30 ppm 6BA, and a mixture of 30 ppm ABA and 30 ppm 6BA (n=8) were made using a tank sprayer at Feekes stage 11.0. Plants were then grown with no additional water for the next 3-5 days until drought stress conditions and water-deficit stress-related phenotypes were apparent. Plants were re-watered to bring soil moisture to saturation and grown under optimal conditions until physiological maturity. Plants were then destructively harvested and measured for shoot weight, spike weight, grain yield, yield per spike and total above ground biomass.

What does the source list for `O=C(Nc1ccccc1)Nc1ccnc(Cl)c1` [CPPU, n-(2-chloro-4-pyridyl)-n′-phenylurea]?
Grain Yield (Apogee wheat [1]; 5 ppm spray): 6.20 grams; Spike Weight (Apogee wheat [1]; 5 ppm spray): 8.57 grams; Total Above Ground Biomass (Apogee wheat [1]; 5 ppm spray): 11.34 grams; Yield/Spike (Apogee wheat [1]; 5 ppm spray): 0.98 grams; Grain Yield (Apogee wheat [1]; 10 ppm spray): 6.32 grams; Spike Weight (Apogee wheat [1]; 10 ppm spray): 8.12 grams; Total Above Ground Biomass (Apogee wheat [1]; 10 ppm spray): 10.94 grams; Yield/Spike (Apogee wheat [1]; 10 ppm spray): 1.00 grams; Yield of All (rice [2]; 10 ppm spray at R6): 26.33 grams; Yield of Others (rice [2]; 10 ppm spray at R6): 11.16 grams; Yield of Top 6 (rice [2]; 10 ppm spray at R6): 15.17 grams; Yield per Panicle (rice [2]; 10 ppm spray at R6): 2.22 grams; Yield per Top 6 (rice [2]; 10 ppm spray at R6): 2.53 grams; Grain Yield (Apogee wheat [3]; 10 ppm spray): 9.69 grams; Harvest Index (Apogee wheat [3]; 10 ppm spray): 0.56; Spike Weight (Apogee wheat [3]; 10 ppm spray): 12.99 grams; Yield/Spike (Apogee wheat [3]; 10 ppm spray): 1.34 grams; Grain Yield (Apogee wheat [4]; 10 ppm): 8.28 grams; Spike Weight (Apogee wheat [4]; 10 ppm): 11.86 grams; Total Above Ground Biomass (Apogee wheat [4]; 10 ppm): 15.98 grams; Yield/Spike (Apogee wheat [4]; 10 ppm): 0.95 grams

How did the “Grain Yield” value (Apogee wheat [1]; 10 ppm spray) turn out when (S)-abscisic acid [ABA] was run?
The value was 6.95 grams.

What about the “Spike Weight” value (Apogee wheat [1]; 10 ppm spray) of the same compound?
The value was 9.22 grams.

What about the “Total Above Ground Biomass” value (Apogee wheat [1]; 10 ppm spray) of the same compound?
The value was 12.11 grams.

What about the Yield/Spike (Apogee wheat [1]; 10 ppm spray) of the same compound?
The Yield/Spike was 1.08 grams.

What about the “Grain Yield” value (Apogee wheat [1]; 30 ppm spray) of the same compound?
The value was 6.72 grams.

And the “Spike Weight” value (Apogee wheat [1]; 30 ppm spray)?
Its value is 8.90 grams.

What about the “Total Above Ground Biomass” value (Apogee wheat [1]; 30 ppm spray) of the same compound?
Its value is 11.47 grams.

And the Yield/Spike (Apogee wheat [1]; 30 ppm spray)?
Its Yield/Spike is 1.06 grams.

What about the “Yield of All” value (rice [2]; 30 ppm spray at R6) of the same compound?
The value was 28.47 grams.

What about the “Yield of Others” value (rice [2]; 30 ppm spray at R6) of the same compound?
Its value is 12.72 grams.

What about the “Yield of Top 6” value (rice [2]; 30 ppm spray at R6) of the same compound?
Its value is 15.75 grams.

And the “Yield per Panicle” value (rice [2]; 30 ppm spray at R6)?
Its value is 2.34 grams.

And the “Yield per Top 6” value (rice [2]; 30 ppm spray at R6)?
Its value is 2.63 grams.

And the “Grain Yield” value (Soybean; 2 g/HA spray at R4 to R5)?
The value was 96.57 bushels/acre.

And the “Grain Yield” value (Soybean; 6 g/HA spray at R4 to R5)?
The value was 93.80 bushels/acre.

What about the “Grain Yield” value (Barley; 2 g/HA spray at Zadoks 7.2) of the same compound?
The value was 5319.

What about the “Grain Yield” value (Barley; 6 g/HA spray at Zadoks 7.2) of the same compound?
Its value is 5114.

What about the “Grain Yield” value (Corn; 2 g/HA spray at R2-R3) of the same compound?
Its value is 225 bushels/acre.

And the “Grain Yield” value (Corn; 6 g/HA spray at R2-R3)?
The value was 234 bushels/acre.

What about the “Yield of All” value (rice [5]) of the same compound?
Its value is 23.70 grams.

What about the “Yield of Others” value (rice [5]) of the same compound?
Its value is 5.22 grams.

And the “Yield of Top 6” value (rice [5])?
Its value is 19.14 grams.

And the “Yield per Panicle” value (rice [5])?
Its value is 2.95 grams.

What about the “Yield per Top 6” value (rice [5]) of the same compound?
Its value is 3.19 grams.

What about the “Grain Yield” value (Apogee wheat [3]; 30 ppm spray) of the same compound?
Its value is 10.24 grams.

And the “Harvest Index” value (Apogee wheat [3]; 30 ppm spray)?
The value was 0.55.

What about the “Spike Weight” value (Apogee wheat [3]; 30 ppm spray) of the same compound?
The value was 14.06 grams.

What about the Yield/Spike (Apogee wheat [3]; 30 ppm spray) of the same compound?
The Yield/Spike was 1.40 grams.

What about the “Grain Yield” value (Apogee wheat [6]) of the same compound?
Its value is 12.12 grams.

And the “Shoot Weight” value (Apogee wheat [6])?
The value was 5.04 grams.

What about the “Spike Weight” value (Apogee wheat [6]) of the same compound?
Its value is 15.66 grams.

And the “Total Above Ground Biomass” value (Apogee wheat [6])?
The value was 20.70 grams.

And the Yield/Spike (Apogee wheat [6])?
The Yield/Spike was 1.33 grams.

And the “Grain Yield” value (Apogee wheat [4]; 30 ppm)?
The value was 8.49 grams.

What about the “Spike Weight” value (Apogee wheat [4]; 30 ppm) of the same compound?
The value was 11.60 grams.

What about the “Total Above Ground Biomass” value (Apogee wheat [4]; 30 ppm) of the same compound?
Its value is 15.38 grams.

What about the Yield/Spike (Apogee wheat [4]; 30 ppm) of the same compound?
Its Yield/Spike is 1.04 grams.
